Reference: US7854940B2, “Broad spectrum preservation blends” (Arch Chemicals, Inc., priority 2004, dated 2010)

Columns and labels:
Assay in all cases: Challenge test in broth
Format in all cases: cell-based
Conditions in all cases: Tryptic Soy Broth, blend added at 0.5% v/v
[1] = test system: mixed molds Aspergillus niger (ATCC 6275) and a Penicillium sp. cosmetic isolate
Description: (§1) A challenge protocol similar to the CTFA method was followed to assess efficacy against a broad spectrum of microorganisms. The four separate inocula were: Staphylococcus aureus (ATCC 6538), Pseudomonas aeruginosa (ATCC 9027) and Enterobacter gergoviae (cosmetic isolate), Candida albicans (ATCC 10231), and mixed molds Aspergillus niger (ATCC 6275) and a Penicillium sp. cosmetic isolate. Tubes containing 20 milliliters of broth were inoculated with approximately 1,500,000 bacteria per gram, 50,000 yeast cells per gram or 100,000 mold spores per gram. Individual challenges were prepared from overnight slants of bacteria and yeast cultures and from heavily sporulating mold cultures, 7 to 10 days old. All samples were plated quantitatively for viable organisms after 24 hours and 8 days.

[2] = test system: Staphylococcus aureus (ATCC 6538)
Description: as §1

[3] = test system: Pseudomonas aeruginosa (ATCC 9027) and Enterobacter gergoviae (cosmetic isolate)
Description: as §1

[4] = test system: Candida albicans (ATCC 10231)
Description: as §1

`OCCOc1ccccc1` [2-Phenoxyethanol] was tested, and the “Colony Forming Units per Milliliter of Broth (CFU/ml) after 8 Days” value (from here on “Colony Forming Units per Milliliter”) [1] was 5.8 × 10^2 CFU/ml, the “Colony Forming Units per Milliliter” value [2] was 3.2 × 10^8 CFU/ml and the “Colony Forming Units per Milliliter” value [3] was 9.1 × 10^7 CFU/ml. For the same compound, the “Colony Forming Units per Milliliter” value [4] was 4.0 × 10^3 CFU/ml.
